# Measured values taken from patent US8241681B2, “Synergistic mixtures of bisabolol and ginger extract” (Symrise AG, priority 2005, dated 2012).
# Test system: erythema raised by 24-hour occlusive treatment with SDS (sodium dodecyl sulfate), inside under-arm skin
# Assay: SDS inflammation test (SDS irritation study), reduction in reddening of the skin
# Format: in vivo, human
# Details: after 3 days
# Experimental: The SDS inflammation test was used as the test model. The study was conducted on the inside under-arm of 20 subjects (9 female, 11 male, age: 24-62 years). The reddening of the skin was recorded with a Minolta-Chromameter CR 300 via the a* value of the La′b′ colour system, which describes the position on the red-green axis. The measurements were taken before and 4-6 hours after raising the erythema by 24-hour occlusive treatment with SDS (sodium dodecyl sulfate). The skin was then treated with the test formulation in question 2 times daily for 3 days. 4-6 h after the last application on day 3, the reddening of the skin was determined and the reduction in reddening was calculated from this.
# For the study, a defined amount of the active compound combination C according to the invention was incorporated into an O/W emulsion. For comparison purposes, the comparison active compounds A and B were incorporated into separate O/W emulsions.
# Extrapon Ginger (Symrise) comprising 1% of ginger CO2 extract, characterized by 25-33% in total of piquant substances with gingerols, shogaols (<3%) and zingerone (<0.5%) and 38-46% of steam-volatile constituents was employed as comparison active compound A.
# Calculation of the synergy index (SI) value according to Kull for the reduction in reddening in the SDS inflammation test for a mixture of bisabolol and ginger extract after a treatment time of 3 days: […]
structure (smiles),measurement,setting,value
"CC(C)=CCC[C@](C)(O)[C@@H]1CC=C(C)CC1 [Formulation with active compound B, -(-Alpha-)-Bisabolol, natural]",Reduction in reddening relative to the start conditions (a* value),"O/W emulsion applied 2 times daily, 20 subjects, Minolta-Chromameter CR 300, Example 11",2.42
same,Placebo-corrected reduction in reddening (a* value),"reduction in reddening active compound minus reduction in reddening placebo, Example 11",1.02
